In ChEMBL document CHEMBL1770129, “Total synthesis of solamargine” (Bioorg Med Chem Lett, 2011) one finds IC50 data, which are given here for one molecule.

The subject of one assay is A549. The assay can be described thus: Cytotoxicity against human A549 cells by MTT assay. The assay is classed as functional, cell-based. (In general: Formazan colour is commonly taken as a measure of viable cells.)
In the next assay the test system is H9c2. Put plainly: Cytotoxicity against rat H9c2 cells by MTT assay. It is filed as cell-based.
The nature of assay [1]: Cytotoxicity against human HL-7702 by MTT assay. As to conditions: L02.
For another assay, the system named is K562. Put plainly: Cytotoxicity against human K562 cells by MTT assay. The assay is classed as functional, cell-based.
Another assay has as its system MCF7. Put plainly: Cytotoxicity against human MCF7 cells by MTT assay. It is filed as functional, cell-based.
The next assay has as its system HepG2. Put plainly: Cytotoxicity against human HepG2 cells by MTT assay. It is filed as functional, cell-based.
For another assay, the system named is HCT-116. Put plainly: Cytotoxicity against human HCT116 cells by MTT assay. It is filed as functional, cell-based.
The next assay concerns HeLa. The assay can be described thus: Cytotoxicity against human HeLa cells by MTT assay. It is filed as functional, cell-based.
Assay [2] can be described thus: Cytotoxicity against human U87 cells by MTT assay. It is filed as functional, cell-based, U-87MG ATCC. Particulars: U-87 MG.

On to `C[C@@H]1CC[C@@]2(NC1)O[C@H]1C[C@H]3[C@@H]4CC=C5C[C@@H](O[C@@H]6O[C@H](CO)[C@@H](O[C@@H]7O[C@@H](C)[C@H](O)[C@@H](O)[C@H]7O)[C@H](O)[C@H]6O[C@@H]6O[C@@H](C)[C@H](O)[C@@H](O)[C@H]6O)CC[C@]5(C)[C@H]4CC[C@]3(C)[C@H]1[C@@H]2C` [SOLAMARGINE], for which the IC50 (usually the concentration needed to halve the response being measured) was 8 µM in the assay on A549; greater than 20 µM in the assay on H9c2; 13.5 µM in assay [1]; 5.2 µM with K562; 2.1 µM in the assay with MCF7; 2.5 µM in the assay with HepG2. For the same molecule, the IC50 with HCT-116 is 3.8 µM; in the assay on HeLa, 6 µM; in [2], 3.2 µM.
